Reference: ChEMBL document CHEMBL2363022, “Malaria Box Schistosomiasis Screening Data” (2013)

Legend:
Format in all cases: functional
Set-up in all cases: scale not given here
[1] = system: Schistosoma mansoni
[2] = system: Schistosoma mansoni; remark: listed apart in the source
[3] = system: Schistosoma mansoni; remark: listed apart in the source

Row | SMILES | Toxicity [1] | Toxicity [2] | Toxicity [3]
1 | COc1cc(-c2nc(-c3ccccc3)c(-c3ccccc3)[nH]2)cc(OC)c1O | 0 | 0 | 0
2 | Cc1ccc(Nc2nc(-c3ccccn3)cs2)cc1 | 0 | 0 | 0
3 | COC(=O)c1ccc(Cl)c2c1C1C=CCC1C(c1cccc3ccccc13)N2 (stereo unspecified) | 0 | 0 | 0
4 | OC(CNC1CCCCC1)Cn1c2ccc(I)cc2c2cc(I)ccc21 (stereo unspecified) | 4 | 4 | 4
5 | Cc1[nH]c(-c2ccc(F)cc2)cc1C(=O)NC1CCN(Cc2ccccc2)CC1 | 3 | 0 | 0
6 | N#Cc1nc(Cc2cccc3ccccc23)oc1N1CCN(C(c2ccccc2)c2ccccc2)CC1 | 0 | 0 | 0
7 | CN(C)c1ccc(C(O)(c2ccc(N(C)C)cc2)c2ccc(N(C)C)cc2)cc1 [METHYLROSANILINE] | 4 | 2 | 2
8 | Cn1c(=O)c2cc(C(=O)NCCCN3CCCCCC3)sc2c2ccccc21 | 0 | 0 | 0
9 | CC1(c2ccccc2)Nc2ccccc2-c2nc3ccccc3n21 (stereo unspecified) | 0 | 0 | 0
10 | CCOC(=O)C1CCN(C(=O)CN2C(=O)c3ccccc3C2c2c[nH]c3ccccc23)CC1 (stereo unspecified) | 0 | 0 | 0
11 | O=c1cc(NC2CCN(CCCc3ccccc3)CC2)c2cc(Cl)ccc2o1 | 2 | 1 | 2
12 | CCOc1ccc(N2C(N)=NC(N)=NC2(C)C)cc1.Cl | 0 | 0 | 0
13 | COc1ccc(NC(=O)C2c3ccccc3C(=O)N(CC(C)C)C2c2cccs2)cc1Cl (stereo unspecified) | 0 | 0 | 0
14 | CC1CN(C(=O)c2sc3ccccc3c2Cl)CC(C)O1 (stereo unspecified) | 0 | 0 | 0
15 | CCOC(=O)c1ccc2nc(-c3ccccc3)cc(O)c2c1 | 4 | 0 | 0
16 | CCOc1cc2c(cc1OCC)C(c1cc(OC)c(O)cc1Cl)NCC2 (stereo unspecified) | 0 | 0 | 0
17 | CC(=O)Nc1nnc(SCc2c(C)cc(C(C)(C)C)cc2C)s1 | 0 | 0 | 0
18 | CCOc1cccc(C(=O)Nc2ccc(-c3nc4ccccc4[nH]3)cc2)c1 | 2 | 0 | 0
19 | COc1ccc(-c2cc3c(nn2)-c2ccccc2C3=O)cc1 | 0 | 0 | 0
20 | CCc1ccc(Nc2cc(C)c3ccc(O)cc3n2)cc1.Cl | 3 | 2 | 2
21 | COCCNC(=O)c1ccc(OC2CCN(Cc3ccc(F)c(F)c3)CC2)c(Cl)c1 | 0 | 0 | 0
22 | COc1ccc(Br)cc1C1Nc2ccc3ccccc3c2C2=C1C(=O)CC(c1ccccc1)C2 (stereo unspecified) | 0 | 0 | 0
23 | CN1C=C(c2ccc3ccccc3n2)C(c2c[nH]c3ccccc23)c2ccccc21 (stereo unspecified) | 0 | 0 | 0
24 | COC(=O)c1ccc(C2C3=C(O)CC(c4ccc(F)cc4)CC3=Nc3ccccc3N2C(=O)c2ccccc2)cc1 (stereo unspecified) | 1 | 2 | 0
25 | O=C(NC1CCCCC1)C(c1cccs1)N(CCc1ccccc1)C(=O)c1ccco1 (stereo unspecified) | 0 | 0 | 0
26 | OCCNc1nc(Nc2ccc(Cl)c(Cl)c2)nc2ccccc12 | 4 | 0 | 2
27 | CCOc1ccc2c(c1)CN(Cc1ccc(Cl)cc1)CO2 | 0 | 0 | 2
